Each block holds one compound with its values, some of them ahead of it.
Target: T1, RTN3 (Homo sapiens, UniProt O95197)
T1 construct: endogenous in cells; host or cells: HEK293T
T1 sequence (O95197 1-1032): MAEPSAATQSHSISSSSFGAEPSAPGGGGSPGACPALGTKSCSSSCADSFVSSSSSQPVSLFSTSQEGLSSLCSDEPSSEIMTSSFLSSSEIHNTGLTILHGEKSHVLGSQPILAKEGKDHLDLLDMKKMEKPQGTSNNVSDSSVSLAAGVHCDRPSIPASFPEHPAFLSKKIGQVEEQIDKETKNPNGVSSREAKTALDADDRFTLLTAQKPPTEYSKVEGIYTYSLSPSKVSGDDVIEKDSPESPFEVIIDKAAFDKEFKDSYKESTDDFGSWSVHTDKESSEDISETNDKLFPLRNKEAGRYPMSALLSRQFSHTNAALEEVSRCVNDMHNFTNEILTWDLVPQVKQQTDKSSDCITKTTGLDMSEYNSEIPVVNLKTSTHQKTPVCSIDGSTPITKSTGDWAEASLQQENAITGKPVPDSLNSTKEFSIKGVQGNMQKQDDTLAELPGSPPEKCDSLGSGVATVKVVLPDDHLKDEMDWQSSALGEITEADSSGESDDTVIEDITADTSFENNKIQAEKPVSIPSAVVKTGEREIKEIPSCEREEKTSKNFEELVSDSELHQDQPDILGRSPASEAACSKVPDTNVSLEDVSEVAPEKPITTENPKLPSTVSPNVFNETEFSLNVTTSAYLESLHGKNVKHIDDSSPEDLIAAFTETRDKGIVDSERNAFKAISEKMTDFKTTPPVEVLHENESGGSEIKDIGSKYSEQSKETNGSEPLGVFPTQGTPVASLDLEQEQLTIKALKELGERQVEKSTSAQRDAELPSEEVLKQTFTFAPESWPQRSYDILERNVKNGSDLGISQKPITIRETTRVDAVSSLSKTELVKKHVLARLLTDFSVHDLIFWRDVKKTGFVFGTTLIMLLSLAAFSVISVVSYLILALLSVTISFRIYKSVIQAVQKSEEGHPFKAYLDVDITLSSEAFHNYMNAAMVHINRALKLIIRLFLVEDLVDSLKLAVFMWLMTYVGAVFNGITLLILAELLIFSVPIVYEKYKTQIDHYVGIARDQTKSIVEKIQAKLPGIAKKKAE
Assay: ABPP chemical proteomics (LC-MS/MS) in HEK293T cells
Format: cell-based
Protocol: To explore the selectivity of IMP-2587 and IMP-2586 across the whole proteome, we performed quantitative activity-based protein profiling (ABPP) in HEK293T cells following treatment with IMP-2587 or IMP-2586 (Fig. 3a). After ABP incubation, cells were lysed, and probe-labelled proteins were ligated to biotinylated capture reagents.[27] […] USP30 was outcompeted by corresponding parent inhibitors for each ABP (Fig. 5b and d and Tables S3 and S5, ESI ^†), confirming the high potency and rapid engagement of IMP-2587 and IMP-2586 in cells. […] DESI1 and DESI2 are small ubiquitin-related modifier (SUMO) proteases,[3,29–32] and IMP-2587 and IMP-2586 may offer a starting point for future development of DESI ABPs. […]
d) Live cell probe incubation, lysate click chemistry and precipitation 6-well HEK293T cells were incubated with media containing compounds ABP 2 and ABP 4 at indicated concentrations for 1 h at 37 °C. The cells were washed with PBS and lysed with lysis buffer (50 μL (1% (v/v) Triton X-100, 0.1% (w/v) sodium dodecyl sulfate (SDS), EDTA-free complete protease inhibitor cocktail (1×, Roche) in PBS on ice for 10 min. The lysates were scraped and transferred to corresponding Lo-Bind Eppendorfs. Each lysate was sonicated for 1 minute, and the samples centrifuges at 5,000 x g at 4 °C for 5 minutes to pellet insoluble cellular debris. The supernatant was collected, and protein concentration was determined using the DC Protein Assay (Bio-Rad) as per manufacturer’s instructions, and normalised to lowest concentrated sample (e.g. 1 mg/mL, using lysis buffer). The following “click mixture” was prepared separately, preparing 6 μL for every 100 μL of […]
Capture reagent (AzRB/AzT for ABP 2, YnT/YnB for ABP 4 10 mM in DMSO, 1 vol; final concentration […]
CuSO4 (50 mM in water, 2 vol; final concentration in reaction 1 mM)
TCEP (50 mM in water, 2 vol; final concentration in reaction 1 mM)
TBTA (10 mM in DMSO, 1 vol; final concentration in reaction 100 µM)
The click mixture was vortexed and incubated at room temperature for 2 min before 6 μL of the mixture was added to every 100 μL of lysate. The reaction mixtures were shaken at room temperature for 1 h before being quenched with EDTA (500 mM in H2O) to a final concentration of 10 mM.
Proteins were precipitated by adding H2O (1 vol), MeOH (2 vol) and CHCl3 (0.5 vol), vortexing briefly then centrifuging at 17,000 × g for 5 min. The top H2O/MeOH layer was discarded and the middle layer of protein pellet and lower CHCl3 layer retained. The suspension was washed with MeOH (300 μL), and sonicated to break up the pellet. The proteins were pelleted by centrifugation at 10,000–17000 × g for 5–10 min or until a compact pellet was formed. The protein pellet was washed once more with MeOH (1 mL). The pellet was resuspended by sonicating and completely dissolving in 1% (w/v) SDS in PBS (to 5 mg/mL protein) before being made up to 1 mg/mL protein with PBS. […]
f) Neutravidin biotin enrichment (Affinity pull-down)
Click chemistry and precipitation steps were carried out as described in section 3.2.d, on at least 400ug of protein per sample. The pellet was resuspended by sonicating and completely dissolving in 1% (w/v) SDS in HEPES 50 mM pH 8.0, before being made up to 1 mg/mL protein with HEPES 50 mM pH 8.0 to […]
achieve a final concentration of 0.2% SDS. 20uL of each samples was collected as TL (Total lysate) samples. Pull down of biotinylated proteins was achieved by incubating samples with pre-equilibrated (3x 1 mL washes with 0.2% (w/v) SDS in HEPES 50 mM pH 8 buffer) Pierce™ NeutrAvidin™ Agarose beads for 3 hours at room temperature. NeutrAvidin™ Agarose beads were used in ratio of 1 μL bead resin per 10ug of protein sample. The beads were subsequently washed by moderate shaking for 10 seconds then briefly pelleting by table-top centrifuge then vacuum aspirating the supernatant with fine-end pipette tips (to not disturb the agarose) after collecting 20 µL supernatant as SN (supernatant […]
) samples. […]

SMILES: N#CN1CC[C@@H](NC(=O)c2cc(-c3ccccc3Oc3ccc(N=[N+]=[N-])cc3)n[nH]2)C1 [IMP-2586]
Difference (log2 fold change of enrichment) (IMP-2586 labelling vs DMSO, 30 nM, 10 min, HEK293T (Table S4, Fig.5c)): 0.91

SMILES: C#Cc1cccc(-c2cc(NC(=O)CC3CCN(C#N)C3)on2)c1 (stereo not shown) [IMP-2587]
Difference (log2 fold change of enrichment) (IMP-2587 labelling vs DMSO, 30 nM, 10 min, HEK293T (Table S2, Fig.5a)): 1.07

Difference (log2 fold change of enrichment) (compound 1 out-competition with IMP-2587 labelling, HEK293T (Table S3, Fig.5b)): -0.64
SMILES: N#CN1CC[C@H](CC(=O)Nc2cc(-c3cccc(Cl)c3)no2)C1 [compound 1, reference compound]

Difference (log2 fold change of enrichment) (compound 3 out-competition with IMP-2586 labelling, HEK293T (Table S5, Fig.5d)): -0.42
SMILES: N#CN1CC[C@@H](NC(=O)c2cc(-c3ccccc3Oc3ccccc3)n[nH]2)C1 [compound 3, reference compound]
